# From patent US10597388B2, “Pyridazinone herbicides” (FMC CORPORATION, priority 2014, dated 2020)
# Assays:
# Assay in all cases: Test D controlled growth environment herbicide test, pre- and postemergence
# Format in all cases: in vivo
# [1] = system: mustard, wild (wild mustard, Sinapis arvensis)
# Excerpt: (§1) Seeds of plant species selected from bluegrass (annual bluegrass, Poa annua), blackgrass (Alopecurus myosuroides), Canada thistle (Cirsium arvense), canarygrass (Phalaris minor), chickweed (common chickweed, Stellaria media), geranium, cutleaf (cutleaf geranium, Geranium dissectum), galium (catchweed bedstraw, Galium aparine), bromegrass, downy (downy bromegrass, Bromus tectorum), field poppy (Papaver rhoeas), field violet (Viola arvensis), foxtail, green (green foxtail, Setaria viridis), deadnettle (henbit deadnettle, Lamium amplexicaule), ryegrass, Italian (Italian ryegrass, Lolium multiflorum), kochia (Kochia scoparia), lambsquarters (Chenopodium album), oilseed rape (Brassica napus), pigweed (Amaranthus retroflexus), chamomile (scentless chamomile, Matricaria inodora), Russian thistle (Salsola kali), speedwell (bird's-eye speedwell, Veronica persica), barley, spring (spring barley, Hordeum vulgare), wheat, spring (spring wheat, Triticum aestivum), buckwheat, wild (wild buckwheat, Polygonum convolvulus), mustard, wild (wild mustard, Sinapis arvensis), oat, wild (wild oat, Avena fatua), radish, wild (wild radish, Raphanus raphanistrum), windgrass (Apera spica-venti), barley, winter (winter barley, Hordeum vulgare), and wheat, winter (winter wheat, Triticum aestivum) were planted into a silt loam soil and treated preemergence with test chemicals formulated in a non-phytotoxic solvent mixture which included a surfactant.
# (§2) At the same time, these species were planted in pots containing Redi-Earth® planting medium (Scotts Company, 14111 Scottslawn Road, Marysville, Ohio 43041) comprising spaghnum peat moss, vermiculite, wetting agent and starter nutrients and treated with postemergence applications of the test chemicals formulated in the same manner. Plants ranged in height from 2 to 18 cm (1- to 4-leaf stage). Treated plants and controls were maintained in a controlled growth environment for 14 to 21 d after which time all species were compared to controls and visually evaluated. Plant response ratings, summarized in Table D, are based on a scale of 0 to 100 where 0 is no effect and 100 is complete control. A dash (-) response means no test result.
# [2] = system: lambsquarters (Chenopodium album)
# Excerpt: as §1, §2
# [3] = system: radish, wild (wild radish, Raphanus raphanistrum)
# Excerpt: as §1, §2
# [4] = system: deadnettle (henbit deadnettle, Lamium amplexicaule)
# Excerpt: as §1, §2
# [5] = system: barley, spring (spring barley, Hordeum vulgare)
# Excerpt: as §1, §2
# [6] = system: windgrass (Apera spica-venti)
# Excerpt: as §1, §2
# [7] = system: field violet (Viola arvensis)
# Excerpt: as §1, §2
# [8] = system: bromegrass, downy (downy bromegrass, Bromus tectorum)
# Excerpt: as §1, §2
# [9] = system: chamomile (scentless chamomile, Matricaria inodora)
# Excerpt: as §1, §2
# [10] = system: wheat, spring (spring wheat, Triticum aestivum)
# Excerpt: as §1, §2
# [11] = system: oat, wild (wild oat, Avena fatua)
# Excerpt: as §1, §2
# [12] = system: oilseed rape (Brassica napus)
# Excerpt: as §1, §2
# [13] = system: speedwell (bird's-eye speedwell, Veronica persica)
# Excerpt: as §1, §2
# [14] = Postemergence, 31 g ai/ha, scale 0 to 100 (0 no effect, 100 complete control)
# [15] = Postemergence, 125 g ai/ha, visual rating on scale 0 (no effect) to 100 (complete control), 14 to 21 d
# [16] = Postemergence, 250 g ai/ha, scale 0 to 100 (0 no effect, 100 complete control)
# [17] = Preemergence, 62 g ai/ha, scale 0 to 100 (0 no effect, 100 complete control)
# [18] = Preemergence, 125 g ai/ha, scale 0 to 100 (0 no effect, 100 complete control)
# [19] = Preemergence, 250 g ai/ha, scale 0 to 100 (0 no effect, 100 complete control)
# [20] = postemergence, 62 g ai/ha, scale 0 to 100, 0 no effect, 100 complete control
structure (smiles),measurement,setting,value
Cc1ccc(-c2c(O)c(Br)nn(C)c2=O)c2ccccc12 [Compound 52],"Mustard, Wild plant response rating",[1]; [14],20
same,"Plant response rating, Mustard, Wild",[1]; [15],90
same,"Plant response rating, Mustard, Wild",[1]; [16],100
same,"Plant response rating (scale of 0 to 100), Mustard, Wild","[1]; Preemergence, 31 g ai/ha",85
same,"Plant response rating, Mustard, Wild",[1]; [17],100
same,"Plant response rating, Mustard, Wild",[1]; [18],90
same,"Plant response rating, Mustard, Wild",[1]; [19],98
same,"Plant response rating, Mustard, Wild",[1]; [20],75
same,Lambsquarters plant response rating,[2]; [14],75
same,"Plant response rating, Lambsquarters",[2]; [15],75
same,"Plant response rating, Lambsquarters",[2]; [16],90
same,"Plant response rating (scale of 0 to 100), Lambsquarters","[2]; Preemergence, 31 g ai/ha",35
same,"Plant response rating, Lambsquarters",[2]; [17],90
same,"Plant response rating, Lambsquarters",[2]; [18],100
same,"Plant response rating, Lambsquarters",[2]; [19],100
same,"Plant response rating, Lambsquarters",[2]; [20],75
same,"Radish, Wild plant response rating",[3]; [14],35
same,"Plant response rating, Radish, Wild",[3]; [15],80
same,"Plant response rating, Radish, Wild",[3]; [16],85
same,"Plant response rating (scale of 0 to 100), Radish, Wild","[3]; Preemergence, 31 g ai/ha",0
same,"Plant response rating, Radish, Wild",[3]; [17],15
same,"Plant response rating, Radish, Wild",[3]; [18],55
same,"Plant response rating, Radish, Wild",[3]; [19],75
same,"Plant response rating, Radish, Wild",[3]; [20],65
same,Deadnettle plant response rating,[4]; [14],35
same,"Plant response rating, Deadnettle",[4]; [15],35
same,"Plant response rating, Deadnettle",[4]; [16],35
same,"Plant response rating (scale of 0 to 100), Deadnettle","[4]; Preemergence, 31 g ai/ha",0
same,"Plant response rating, Deadnettle",[4]; [17],0
same,"Plant response rating, Deadnettle",[4]; [18],10
same,"Plant response rating, Deadnettle",[4]; [19],25
same,"Plant response rating, Deadnettle",[4]; [20],25
same,"Barley, Spring plant response rating",[5]; [14],0
same,"Plant response rating, Barley, Spring",[5]; [15],5
same,"Plant response rating, Barley, Spring",[5]; [16],0
same,"Plant response rating (scale of 0 to 100), Barley, Spring","[5]; Preemergence, 31 g ai/ha",0
same,"Plant response rating, Barley, Spring",[5]; [17],0
same,"Plant response rating, Barley, Spring",[5]; [18],0
same,"Plant response rating, Barley, Spring",[5]; [19],0
same,"Plant response rating, Barley, Spring",[5]; [20],0
same,Windgrass plant response rating,[6]; [14],0
same,"Plant response rating, Windgrass",[6]; [15],5
same,"Plant response rating, Windgrass",[6]; [16],5
same,"Plant response rating (scale of 0 to 100), Windgrass","[6]; Preemergence, 31 g ai/ha",10
same,"Plant response rating, Windgrass",[6]; [17],10
same,"Plant response rating, Windgrass",[6]; [18],10
same,"Plant response rating, Windgrass",[6]; [19],10
same,"Plant response rating, Windgrass",[6]; [20],5
same,Field Violet plant response rating,[7]; [14],35
same,"Plant response rating, Field Violet",[7]; [15],75
same,"Plant response rating, Field Violet",[7]; [16],75
same,"Plant response rating (scale of 0 to 100), Field Violet","[7]; Preemergence, 31 g ai/ha",0
same,"Plant response rating, Field Violet",[7]; [17],10
same,"Plant response rating, Field Violet",[7]; [18],75
same,"Plant response rating, Field Violet",[7]; [19],85
same,"Plant response rating, Field Violet",[7]; [20],65
same,"Bromegrass, Downy plant response rating",[8]; [14],0
same,"Plant response rating, Bromegrass, Downy",[8]; [15],0
same,"Plant response rating, Bromegrass, Downy",[8]; [16],10
same,"Plant response rating (scale of 0 to 100), Bromegrass, Downy","[8]; Preemergence, 31 g ai/ha",0
same,"Plant response rating, Bromegrass, Downy",[8]; [17],0
same,"Plant response rating, Bromegrass, Downy",[8]; [18],15
same,"Plant response rating, Bromegrass, Downy",[8]; [19],20
same,"Plant response rating, Bromegrass, Downy",[8]; [20],0
same,Chamomile plant response rating,[9]; [14],85
same,"Plant response rating, Chamomile",[9]; [15],100
same,"Plant response rating, Chamomile",[9]; [16],100
same,"Plant response rating (scale of 0 to 100), Chamomile","[9]; Preemergence, 31 g ai/ha",60
same,"Plant response rating, Chamomile",[9]; [17],100
same,"Plant response rating, Chamomile",[9]; [18],100
same,"Plant response rating, Chamomile",[9]; [19],100
same,"Plant response rating, Chamomile",[9]; [20],100
same,"Wheat, Spring plant response rating",[10]; [14],0
same,"Plant response rating, Wheat, Spring",[10]; [15],0
same,"Plant response rating, Wheat, Spring",[10]; [16],5
same,"Plant response rating (scale of 0 to 100), Wheat, Spring","[10]; Preemergence, 31 g ai/ha",0
same,"Plant response rating, Wheat, Spring",[10]; [17],0
same,"Plant response rating, Wheat, Spring",[10]; [18],0
same,"Plant response rating, Wheat, Spring",[10]; [19],5
same,"Plant response rating, Wheat, Spring",[10]; [20],0
same,"Oat, Wild plant response rating",[11]; [14],5
same,"Plant response rating, Oat, Wild",[11]; [15],5
same,"Plant response rating, Oat, Wild",[11]; [16],15
same,"Plant response rating (scale of 0 to 100), Oat, Wild","[11]; Preemergence, 31 g ai/ha",25
same,"Plant response rating, Oat, Wild",[11]; [17],25
same,"Plant response rating, Oat, Wild",[11]; [18],25
same,"Plant response rating, Oat, Wild",[11]; [19],30
same,"Plant response rating, Oat, Wild",[11]; [20],5
same,Oilseed Rape plant response rating,[12]; [14],0
same,"Plant response rating, Oilseed Rape",[12]; [15],65
same,"Plant response rating, Oilseed Rape",[12]; [16],80
same,"Plant response rating (scale of 0 to 100), Oilseed Rape","[12]; Preemergence, 31 g ai/ha",0
same,"Plant response rating, Oilseed Rape",[12]; [17],0
same,"Plant response rating, Oilseed Rape",[12]; [18],0
same,"Plant response rating, Oilseed Rape",[12]; [19],55
same,"Plant response rating, Oilseed Rape",[12]; [20],5
same,Speedwell plant response rating,[13]; [14],70
same,"Plant response rating, Speedwell",[13]; [15],100
same,"Plant response rating, Speedwell",[13]; [16],100
same,"Plant response rating (scale of 0 to 100), Speedwell","[13]; Preemergence, 31 g ai/ha",50
same,"Plant response rating, Speedwell",[13]; [17],100
same,"Plant response rating, Speedwell",[13]; [18],95
same,"Plant response rating, Speedwell",[13]; [19],100
same,"Plant response rating, Speedwell",[13]; [20],85
